# pEC50, pIC50: −log10 of the molar value. Where two headings read alike, the source gives them in different places.
# What was measured:
# Assay type in all cases: cell-based
# SU-DHL-6 = assay: 5-day viable cell number and apoptosis (7-AAD exclusion/Annexin V flow cytometry); conditions: SU-DHL-6 cells, 5 days
# How it was run: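 DLBCL lines were exposed to increasing compound doses for five days. Viable cell number was then counted, and apoptosis was scored by flow cytometry using 7-AAD exclusion with Annexin V staining.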
# SU-DHL-4 = assay: CellTiter-Glo (CTG) antiproliferative assay, 5-day; conditions: Homo sapiens, 120 h; SU-DHL-4, 5-day assay, n = 6
# Experimental: To evaluate the activity of both Compound 1 and Compound 2 in DLBCL cells, a CellTiter-Glo (CTG) assay was performed to measure the antiproliferative activity.
# Aiolos = target: T1, Aiolos (Homo sapiens, UniProt Q96SW2+Q9UKT9); assay: ePL-tagged substrate degradation kinetics in DF15 cells (enantiomer comparison); parameters: Aiolos Y-constant: scale not given here; conditions: for DC50: read-out: Aiolos EC50
# T1 construct: expressed in transfected cells; host or cells: DF15 cells
# T1 sequence (Q9UKT9 whole entry): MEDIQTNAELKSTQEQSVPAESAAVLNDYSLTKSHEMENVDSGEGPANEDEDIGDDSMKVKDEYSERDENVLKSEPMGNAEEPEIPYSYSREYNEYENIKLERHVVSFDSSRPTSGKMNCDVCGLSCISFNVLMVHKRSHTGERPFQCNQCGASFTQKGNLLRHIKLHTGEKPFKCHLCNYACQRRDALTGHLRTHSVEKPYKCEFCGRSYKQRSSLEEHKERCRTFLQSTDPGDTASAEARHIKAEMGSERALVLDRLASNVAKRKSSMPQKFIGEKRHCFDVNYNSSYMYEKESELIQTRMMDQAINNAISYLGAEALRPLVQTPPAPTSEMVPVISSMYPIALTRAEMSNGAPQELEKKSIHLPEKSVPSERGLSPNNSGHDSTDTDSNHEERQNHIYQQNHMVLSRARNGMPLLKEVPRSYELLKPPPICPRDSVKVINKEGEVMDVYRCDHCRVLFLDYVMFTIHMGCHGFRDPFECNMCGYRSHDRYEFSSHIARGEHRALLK
# T1 sequence (Q96SW2 whole entry): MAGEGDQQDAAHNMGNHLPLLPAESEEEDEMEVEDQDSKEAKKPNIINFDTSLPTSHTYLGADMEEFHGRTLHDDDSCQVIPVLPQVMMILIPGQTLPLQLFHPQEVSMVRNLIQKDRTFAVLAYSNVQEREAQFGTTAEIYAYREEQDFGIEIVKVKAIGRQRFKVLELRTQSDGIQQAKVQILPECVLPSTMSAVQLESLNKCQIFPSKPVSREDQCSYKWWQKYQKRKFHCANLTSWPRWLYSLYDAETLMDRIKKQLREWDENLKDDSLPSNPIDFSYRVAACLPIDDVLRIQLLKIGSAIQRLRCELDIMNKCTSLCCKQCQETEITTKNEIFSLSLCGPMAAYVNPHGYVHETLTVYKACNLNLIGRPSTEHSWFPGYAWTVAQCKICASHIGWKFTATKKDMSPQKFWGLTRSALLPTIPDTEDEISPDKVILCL
# T1 sequence (Q16531 whole entry partner): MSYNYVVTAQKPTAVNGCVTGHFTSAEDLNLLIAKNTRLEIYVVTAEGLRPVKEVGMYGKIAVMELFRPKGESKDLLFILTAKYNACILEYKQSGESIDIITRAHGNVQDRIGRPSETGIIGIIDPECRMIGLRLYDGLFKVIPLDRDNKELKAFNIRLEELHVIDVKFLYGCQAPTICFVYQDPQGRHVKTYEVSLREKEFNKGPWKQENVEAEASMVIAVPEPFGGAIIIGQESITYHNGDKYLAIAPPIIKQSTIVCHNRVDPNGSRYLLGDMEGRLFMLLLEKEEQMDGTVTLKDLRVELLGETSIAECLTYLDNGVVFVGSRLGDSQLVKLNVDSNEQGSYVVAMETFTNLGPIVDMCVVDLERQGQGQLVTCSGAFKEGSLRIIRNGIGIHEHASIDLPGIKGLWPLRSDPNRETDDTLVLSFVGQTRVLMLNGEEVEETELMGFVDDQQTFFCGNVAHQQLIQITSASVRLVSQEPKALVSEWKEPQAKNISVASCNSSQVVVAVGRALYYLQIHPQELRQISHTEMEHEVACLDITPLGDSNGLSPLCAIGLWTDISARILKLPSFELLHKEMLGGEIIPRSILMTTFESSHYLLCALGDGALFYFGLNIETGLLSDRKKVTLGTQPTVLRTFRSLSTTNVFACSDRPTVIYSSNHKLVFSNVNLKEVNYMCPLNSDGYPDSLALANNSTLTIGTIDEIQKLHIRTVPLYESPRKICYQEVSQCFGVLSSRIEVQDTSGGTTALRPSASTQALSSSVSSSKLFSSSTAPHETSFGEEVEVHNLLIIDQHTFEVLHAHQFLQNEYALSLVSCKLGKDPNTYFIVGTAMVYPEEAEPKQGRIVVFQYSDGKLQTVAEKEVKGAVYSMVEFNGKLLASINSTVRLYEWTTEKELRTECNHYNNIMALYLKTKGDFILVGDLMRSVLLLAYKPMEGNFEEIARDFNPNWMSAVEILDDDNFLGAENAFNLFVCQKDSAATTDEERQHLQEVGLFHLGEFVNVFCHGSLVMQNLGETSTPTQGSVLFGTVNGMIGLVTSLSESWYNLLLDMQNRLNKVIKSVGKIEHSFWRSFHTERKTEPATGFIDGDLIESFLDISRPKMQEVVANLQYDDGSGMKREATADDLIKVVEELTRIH
# Experimental: In a second assay, DF15 cell lines expressing ePL-tagged target protein substrates were used as a model system to monitor protein degradation at 0.75, 1, 1.5, 3, 4, and 24 hours over a concentration range from 1 pM to 10 μM. The proteins evaluated were Ikaros (FIG. 17), Aiolos, and ZFP91. Compound 1 and Compound 2 were both able to degrade the substrate proteins at all time points (Table 9). In a further assay, additional time points were included to monitor the effect of treatment with Compound 1 and Compound 2.
# The depth of substrate protein degradation described by the Y-constant was also measured in this assay against a negative control luciferase inhibitor (CC1071297, Y-constant=0).
# Ikaros = Ikaros (Homo sapiens, UniProt Q13422+Q96SW2); assay: Ikaros degradation in anti-CD3 stimulated PBMCs by flow cytometry
# Ikaros, sequence (Q13422 whole entry): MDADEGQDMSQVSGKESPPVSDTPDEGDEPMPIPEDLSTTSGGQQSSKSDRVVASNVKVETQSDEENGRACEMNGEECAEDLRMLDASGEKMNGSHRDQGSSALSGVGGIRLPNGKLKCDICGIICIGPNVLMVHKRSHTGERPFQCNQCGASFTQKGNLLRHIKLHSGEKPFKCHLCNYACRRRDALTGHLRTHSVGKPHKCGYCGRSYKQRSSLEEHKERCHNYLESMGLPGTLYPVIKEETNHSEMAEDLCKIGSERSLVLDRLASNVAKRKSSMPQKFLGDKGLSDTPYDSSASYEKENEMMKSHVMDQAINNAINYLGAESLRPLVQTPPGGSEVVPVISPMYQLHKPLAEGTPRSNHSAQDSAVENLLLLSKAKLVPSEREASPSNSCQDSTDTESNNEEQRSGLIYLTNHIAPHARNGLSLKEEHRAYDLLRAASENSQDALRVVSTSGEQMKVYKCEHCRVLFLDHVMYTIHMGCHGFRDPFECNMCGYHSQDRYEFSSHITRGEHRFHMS
# Ikaros, sequence (Q96SW2 whole entry): as the sequence (Q96SW2 whole entry) above
# Ikaros, sequence (Q16531 whole entry partner): as the sequence (Q16531 whole entry partner) above
# Experimental: Purified PBMCs from four healthy donors were plated on anti-CD3-coated plates to stimulate T cells and subsequently treated with either DMSO (control) or Compound 1 at various concentrations. The ability of Compound 1 to promote the degradation of Ikaros was assessed over time by flow cytometry (FIG. 12).
# 11 DLBCL cell lines = assay: Integrated proteomics (TMT-MS) and RNA-Seq profiling; conditions: 0.04 μM; 12, 24 and 48 hours
# Experimental: Biomarkers associated with the cytotoxic effects of Compound 1 treatment in DLBCL, such as signaling and regulatory pathways, were determined by integrative network analysis using transcriptomic and proteomic profiling. The approach consisted of a network flow optimization using a knowledge driven backbone network with protein interactions and regulatory associations similar to what was described previously (Basha, Mauer, Simonovsky, Shpringer, & Yeger-Lotem, 2019; Gosline, Spencer, Ursu, & Fraenkel, 2012).
# Briefly, differential expression analysis and differential protein abundance analysis at different timepoints were integrated using a model framework. […]
# To begin, cell line sensitivity to Compound 1 was determined by flow cytometry for 40 cell line models using DRAQ7 and Annexin V staining to quantify the reduction in proliferation and induction of apoptosis after five days of compound treatment. […] Sensitivity was calculated by calculating the ratio of (AUCapoptosis/AUClive cells), where smaller ratios indicated resistance, and larger ratios indicated sensitivity. […]
compound,measurement,setting,value
"O=C1CC[C@H](N2C(=O)c3cccc(NCc4ccc(CN5CC(N6CCOCC6)C5)cc4F)c3C2=O)C(=O)N1 [Compound 1, (S)-2-(2,6-dioxopiperidin-3-yl)-4-((2-fluoro-4-((3-morpholinoazetidin-1-yl)methyl)benzyl)amino)isoindoline-1,3-dione]",pEC50,"SU-DHL-6; Homo sapiens, 120 h",6.34
same,Emax,"SU-DHL-6; Homo sapiens, 120 h",46.3%
same,pIC50,"SU-DHL-6; Homo sapiens, 120 h",6.59
same,% Viable Cells AUC,SU-DHL-6,88.38
same,% Viable Cells Emax,SU-DHL-6,5.843%
same,% Viable Cells Sensitivity,SU-DHL-6,High (highly sensitive to Compound 1 with less than 6% viable cells remaining (Emax) after treatment)
same,Apoptosis AUC,SU-DHL-6,421.1
same,Apoptosis Sensitivity,SU-DHL-6,High
same,pIC50,SU-DHL-4,7.66
same,Aiolos Y-constant,Aiolos; 0.75 hours,46
same,DC50,Aiolos; 0.75 hours,0.73 nM
same,Aiolos Y-constant,Aiolos; 1 hour,29
same,DC50,Aiolos; 1 hour,0.94 nM
same,Aiolos Y-constant,Aiolos; 1.5 hours,11
same,DC50,Aiolos; 1.5 hours,0.72 nM
same,Aiolos Y-constant,Aiolos; 3 hours,4.8
same,DC50,Aiolos; 3 hours,0.6 nM
same,Aiolos Y-constant,Aiolos; 4 hours,3.9
same,DC50,Aiolos; 4 hours,0.56 nM
same,Aiolos Y-constant,Aiolos; 24 hours,4.0
same,DC50,Aiolos; 24 hours,0.52 nM
same,duration of Ikaros degradation after a single treatment,Ikaros,maintained up to 7 days
same,Ikaros in PBMCs (percentage of Ikaros positive cells),Ikaros; four healthy donors,concentration-dependent degradation
same,genes associated with cell cycle and transcription,11 DLBCL cell lines,global down-regulation
same,"genes associated with interferon signaling, cytokine/chemokine signaling, apoptosis, cell adhesion, cell-cell junction, GPCRs, extracellular matrix",11 DLBCL cell lines,up-regulation
